Source: patent US7592160B2, “Processes for producing isomaltose and isomaltitol and use thereof” (Kabushiki Kaisha Hayashibara Seibutsu Kagaku Kenkyujo, priority 2001, dated 2009)

Experiments:
[1] = test system: α-isomaltosylglucosaccharide-forming enzyme; assay: Transfer-acceptor specificity, enzyme of A19 strain; type: biochemical, Arthrobacter globiformis A19 strain; conditions: acceptor 1.6%, PINE-DEX #100 donor 4%, one unit/g donor, 30° C., pH 8.4, 24 hours
Experimental: (§1) Using various saccharides, it was tested whether the saccharides were used as transferring-acceptors for α-isomaltosylglucosaccharide-forming enzyme. A solution of D-glucose, D-xylose, L-xylose, D-galactose, D-fructose, D-mannose, D-arabinose, D-fucose, D-psicose, L-sorbose, L-rhamnose, methyl-α-glucopyranoside, methyl-β-glucopyranoside, N-acetyl-glucosamine, sorbitol, α,α-trehalose, isomaltose, isomaltotriose, cellobiose, gentibiose, glycerol, maltitol, lactose, sucrose, α-cyclodextrin, β-cyclodextrin, γ-cyclodextrin, or L-ascorbic acid was prepared. To each solution with a saccharide concentration of 1.6% was added “PINE-DEX #100”, a partial starch hydrolyzate, as a saccharide donor, to give a concentration of 4%, and admixed with one unit/g saccharide donor, d.s.b., of either of purified specimens of α-isomaltosylglucosaccharide-forming enzyme from Bacillus globisporus C9 strain obtained by the method in Experiment 4-2, Bacillus globisporus C11 strain obtained by the method in Experiment 7-2, Bacillus globisporus N75 strain obtained by the method in Experiment 11-2, or Arthrobacter globiformis A19 strain obtained by the method in Experiment 15-2, and incubated at 30° C. and pH 6.0 for 24 hours, except that pH 8.4 was used for the enzyme from Arthrobacter globiformis A19 strain. The reaction mixtures of the post-enzymatic reactions were analyzed on gas chromatography (abbreviated as “GLC” hereinafter) for monosaccharides and disaccharides as acceptors, and on HPLC for trisaccharides as acceptors to confirm whether these saccharides could be used as the transfer acceptors of the above enzymes. In the case of performing GLC, the following apparatuses and conditions were used: GLC apparatus, “GC-16A” commercialized by Shimadzu Corporation, Tokyo, Japan; column, a stainless-steel column, 3 mm in diameter and 2 m in length, packed with 2% “SILICONE OV-17/CHROMOSOLV W”, commercialized by GL Sciences Inc., Tokyo, Japan; carrier gas, nitrogen gas at a flow rate of 40 ml/min under temperature conditions of increasing from 160° C. to 320° C. at an increasing temperature rate of 7.5° C./min; and detection, a hydrogen flame ionization detector. In the case of performing HPLC analysis, the following apparatuses and conditions were used: HPLC apparatus, “CCPD” commercialized by Tosoh Corporation, Tokyo, Japan; column, “ODS-AQ-303” commercialized by YMC Co., Ltd., Tokyo, Japan; eluent, water at a flow rate of 0.5 ml/min; and detection, a differential refractometer.

[2] = test system: α-isomaltosylglucosaccharide-forming enzyme; assay: Transfer-acceptor specificity, enzyme of N75 strain; type: biochemical, Bacillus globisporus N75 strain; conditions: acceptor 1.6%, PINE-DEX #100 donor 4%, one unit/g donor, 30° C., pH 6.0, 24 hours
Experimental: as §1

[3] = test system: α-isomaltosylglucosaccharide-forming enzyme; assay: Action on saccharides as substrates (TLC), enzyme of N75 strain; type: biochemical, Bacillus globisporus N75 strain; set-up: key: −: it showed no change; +: it showed a slight reduction of the color spot of the substrate and the formation of other reaction product; ++: it showed a high reduction of the color spot of the substrate and the formation of other reaction product; +++: it showed a substantial disappearance of the substrate spot and the formation of other reaction product; conditions: two units/g substrate, substrate 2% (w/v), 30° C., pH 6.0, 24 hours
From the text: (§2) To examine the saccharides in the supernatant, they were separated by developing twice on silica gel thin-layer chromatography (abbreviated as “TLC” hereinafter) using, as a developer, a mixture solution of n-butanol, pyridine, and water (=6:4:1 by volume), and, as a thin-layer plate, “[…]™ 60”, an aluminum plate (20×20 cm) for TLC commercialized by Merck & Co., Inc., Rahway, USA. The coloration of the separated total sugars by the sulfuric acid-methanol method and that of the reducing saccharides by the diphenylamine-aniline method detected a non-reducing saccharide positive at an Rf value of about 0.31 on the former detection method but negative on the latter detection method.
(§3) It was tested whether any saccharides can be used as substrates for α-isomaltosylglucosaccharide-forming enzyme. For the purpose, a solution of maltose, maltotriose, maltotetraose, maltopentaose, maltohexaose, maltoheptaose, isomaltose, isomaltotriose, panose, isopanose, α,α-trehalose, kojibiose, nigerose, neotrehalose, cellobiose, gentibiose, maltitol, maltotriitol, lactose, sucrose, erlose, selaginose, maltosyl glucoside, or isomaltosyl glucoside was prepared.
(§4) To each of the above solutions was added two units/g substrate of a purified specimen of α-isomaltosylglucosaccharide-forming enzyme from either Bacillus globisporus C9 strain obtained by the method in Experiment 4-2, Bacillus globisporus C11 strain obtained by the method in Experiment 7-2, Bacillus globisporus N75 strain obtained by the method in Experiment 11-2, or Arthrobacter globiformis A19 strain obtained by the method in Experiment 15-2, and the resulting each solution was adjusted to give a substrate concentration of 2% (w/v) and incubated at 30° C. and pH 6.0 for 24 hours, except for using pH 8.4 for the enzyme from Arthrobacter globiformis A19 strain. The enzyme solutions before and after the enzymatic reactions were respectively analyzed on TLC disclosed in Experiment 1 to confirm whether the enzymes acted on these substrates.

[4] = test system: α-isomaltosylglucosaccharide-forming enzyme; assay: Transfer-acceptor specificity, enzyme of C9 strain; type: biochemical, Bacillus globisporus C9 strain; conditions: acceptor 1.6%, PINE-DEX #100 donor 4%, one unit/g donor, 30° C., pH 6.0, 24 hours
Experimental: as §1

[5] = test system: α-isomaltosylglucosaccharide-forming enzyme; assay: Action on saccharides as substrates (TLC), enzyme of C9 strain; type: biochemical, Bacillus globisporus C9 strain; set-up: key: −: it showed no change; +: it showed a slight reduction of the color spot of the substrate and the formation of other reaction product; ++: it showed a high reduction of the color spot of the substrate and the formation of other reaction product; +++: it showed a substantial disappearance of the substrate spot and the formation of other reaction product; conditions: two units/g substrate, substrate 2% (w/v), 30° C., pH 6.0, 24 hours
From the text: as §2, §3, §4

[6] = test system: α-isomaltosylglucosaccharide-forming enzyme; assay: Transfer-acceptor specificity, enzyme of C11 strain; type: biochemical, Bacillus globisporus C11 strain; conditions: acceptor 1.6%, PINE-DEX #100 donor 4%, one unit/g donor, 30° C., pH 6.0, 24 hours
Experimental: as §1

[7] = test system: α-isomaltosylglucosaccharide-forming enzyme; assay: Action on saccharides as substrates (TLC), enzyme of C11 strain; type: biochemical, Bacillus globisporus C11 strain; set-up: key: −: it showed no change; +: it showed a slight reduction of the color spot of the substrate and the formation of other reaction product; ++: it showed a high reduction of the color spot of the substrate and the formation of other reaction product; +++: it showed a substantial disappearance of the substrate spot and the formation of other reaction product; conditions: two units/g substrate, substrate 2% (w/v), 30° C., pH 6.0, 24 hours
From the text: as §2, §3, §4

[8] = test system: α-isomaltosylglucosaccharide-forming enzyme; assay: Action on saccharides as substrates (TLC), enzyme of A19 strain; type: biochemical, Arthrobacter globiformis A19 strain; set-up: key: −: it showed no change; +: it showed a slight reduction of the color spot of the substrate and the formation of other reaction product; ++: it showed a high reduction of the color spot of the substrate and the formation of other reaction product; +++: it showed a substantial disappearance of the substrate spot and the formation of other reaction product; conditions: two units/g substrate, substrate 2% (w/v), 30° C., pH 8.4, 24 hours
From the text: as §2, §3, §4

| Compound | Enzymatic action, Enzyme of N75 strain [3] | Enzymatic action, Enzyme of C9 strain [5] | Enzymatic action, Enzyme of C11 strain [7] | Enzymatic action, Enzyme of A19 strain [8] | Product of transferring reaction, Enzyme of A19 strain [1] | Product of transferring reaction, Enzyme of N75 strain [2] | Product of transferring reaction, Enzyme of C9 strain [4] | Product of transferring reaction, Enzyme of C11 strain [6] |
| --- | --- | --- | --- | --- | --- | --- | --- | --- |
| OC[C@H]1O[C@@H](OC[C@H]2OC(O)[C@H](O)[C@@H](O)[C@@H]2O)[C@H](O)[C@@H](O)[C@@H]1O (stereo partly shown) [Gentibiose, gentibiose] | − | − | − | − | + (a saccharide-transferred product was detected in an amount over one percent but less than 10% through transfer reaction to acceptor) | ++ (a saccharide-transferred product was detected in an amount over ten percent through transfer reaction to acceptor) | ++ (a saccharide-transferred product was detected in an amount over ten percent through transfer reaction to acceptor) | ++ (a saccharide-transferred product was detected in an amount over ten percent through transfer reaction to acceptor) |
| OC[C@H]1O[C@H](OC[C@H]2O[C@H](OC[C@H]3OC(O)[C@H](O)[C@@H](O)[C@@H]3O)[C@H](O)[C@@H](O)[C@@H]2O)[C@H](O)[C@@H](O)[C@@H]1O (stereo partly shown) [Isomaltotriose, isomaltotriose] | − | − | − | − | ± (a saccharide-transferred product was detected in an amount less than one percent through transfer reaction to acceptor) | ++ (a saccharide-transferred product was detected in an amount over ten percent through transfer reaction to acceptor) | ++ (a saccharide-transferred product was detected in an amount over ten percent through transfer reaction to acceptor) | ++ (a saccharide-transferred product was detected in an amount over ten percent through transfer reaction to acceptor) |

The next lines start with results.

| Enzymatic action, Enzyme of N75 strain [3] | Enzymatic action, Enzyme of C9 strain [5] | Enzymatic action, Enzyme of C11 strain [7] | Enzymatic action, Enzyme of A19 strain [8] | Compound | Product of transferring reaction, Enzyme of A19 strain [1] | Product of transferring reaction, Enzyme of N75 strain [2] | Product of transferring reaction, Enzyme of C9 strain [4] | Product of transferring reaction, Enzyme of C11 strain [6] |
| --- | --- | --- | --- | --- | --- | --- | --- | --- |
| − | − | − | − | OC[C@H]1O[C@@](CO)(O[C@H]2O[C@H](CO)[C@@H](O)[C@H](O)[C@H]2O)[C@@H](O)[C@@H]1O [Sucrose, sucrose] | ++ (a saccharide-transferred product was detected in an amount over ten percent through transfer reaction to acceptor) | ++ (a saccharide-transferred product was detected in an amount over ten percent through transfer reaction to acceptor) | ++ (a saccharide-transferred product was detected in an amount over ten percent through transfer reaction to acceptor) | ++ (a saccharide-transferred product was detected in an amount over ten percent through transfer reaction to acceptor) |
| − | − | − | − | OC[C@H]1O[C@@H](O[C@H]2[C@H](O)[C@@H](O)C(O)O[C@@H]2CO)[C@H](O)[C@@H](O)[C@H]1O (stereo partly shown) [Lactose, lactose] | ++ (a saccharide-transferred product was detected in an amount over ten percent through transfer reaction to acceptor) | ++ (a saccharide-transferred product was detected in an amount over ten percent through transfer reaction to acceptor) | ++ (a saccharide-transferred product was detected in an amount over ten percent through transfer reaction to acceptor) | ++ (a saccharide-transferred product was detected in an amount over ten percent through transfer reaction to acceptor) |
| − | − | − | − | OC[C@@H](O)[C@@H](O[C@H]1O[C@H](CO)[C@@H](O)[C@H](O)[C@H]1O)[C@H](O)[C@@H](O)CO [Maltitol, maltitol] | ++ (a saccharide-transferred product was detected in an amount over ten percent through transfer reaction to acceptor) | ++ (a saccharide-transferred product was detected in an amount over ten percent through transfer reaction to acceptor) | ++ (a saccharide-transferred product was detected in an amount over ten percent through transfer reaction to acceptor) | ++ (a saccharide-transferred product was detected in an amount over ten percent through transfer reaction to acceptor) |
